Laboratory results from patent US20120041185A1, “dTDP-BETA-D-FUCOFURANOSE, ITS PREPARATION METHOD AND USE” (TIANJIN BIOCHIP TECHNOLOGY CORPORATION, priority 2007, published 2012).

Legend:
[1] = biological target: T1, Fcf2 (recombinant dTDP-D-Glcfucofuranose mutase) (Escherichia coli, UniProt Q6E7F1); experiment: Divalent cation requirements of Fcf2 (effects of cations on enzyme activity); type: biochemical, E. coli O52; settings: for Transformation rate (%): in the presence of 5 mM divalent ion, 9.5 without ion
T1 construct: The entire ORF encodes a protein composed of 377 amino acids; His6 (N); made in house; host or cells: E. coli BL21
T1 sequence (Q6E7F1 whole entry): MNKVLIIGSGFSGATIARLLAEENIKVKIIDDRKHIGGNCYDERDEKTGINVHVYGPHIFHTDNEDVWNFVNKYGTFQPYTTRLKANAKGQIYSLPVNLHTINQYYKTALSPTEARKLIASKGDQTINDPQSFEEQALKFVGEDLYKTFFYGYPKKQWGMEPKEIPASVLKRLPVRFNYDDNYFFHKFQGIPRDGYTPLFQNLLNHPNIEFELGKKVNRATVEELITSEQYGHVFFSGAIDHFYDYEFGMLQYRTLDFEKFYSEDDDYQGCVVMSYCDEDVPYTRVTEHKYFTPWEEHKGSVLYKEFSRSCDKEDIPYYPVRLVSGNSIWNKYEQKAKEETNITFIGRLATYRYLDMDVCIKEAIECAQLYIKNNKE
Procedure: 25 μl reactions in 0.5 ml centrifugal tube contain 2 mM dTDP-D-fucose, 50 mM Tris-HCl buffer (pH 7.4) 5 mM divalent ion chloride and 3.9 μM recombinant dTDP-D-Glcfucofuranose mutase protein purified in example 2. The reactions are proceeded at certain temperature for 3 hours. Then add chloroform of equal volume to extract protein. The aqueous phase is detected by Beckman Coulter P/ACE MDQ capillary electrophoresis.

[2] = tested on: Fcf1 (recombinant dTDP-D-GIcO reductase); experiment: Divalent cation requirements of Fcf1 (effects of cations on enzyme activity); type: biochemical, E. coli O52; settings: for Transformation rate (%): in the presence of 5 mM divalent ion chloride, 100 without ion; for influence on conversion ratio / inhibition to enzyme activity: 5 mM divalent ion chloride
Procedure: 20 μl reactions in 0.5 ml centrifugal tube contain 2 mM dTDP-D-Glco, 3 mM NADPH, 50 mM Tris-HCl buffer (pH7.4), 5 mM divalent ion chloride and 0.25 μM recombinant dTDP-D-GIcO reductase protein purified in example 2. The reactions are proceeded at certain temperatures for 2 hours. Then add chloroform of equal volume to extract protein. The aqueous phase is detected by Beckman Coulter P/ACE MDQ capillary electrophoresis.

Structure (SMILES) | Transformation rate (%) [1] [%] | Transformation rate (%) [2] [%] | inhibition to enzyme activity ([1]; 5 mM divalent ion) | influence on conversion ratio / inhibition to enzyme activity [2]
[Ca+2].[Cl-].[Cl-] [Ca^2+, CaCl2] | 9.6 | 98.1 |  | 
[Cl-].[Cl-].[Co+2] [Co^2+, CoCl2] | 8.8 | 89.2 |  | 
[Cl][Cu][Cl] [Cu^2+, CuCl2] | 0 | 11.8 | obvious inhibition | highest inhibition
[Cl][Fe][Cl] [Fe^2+, FeCl2] | 9.1 | 90.5 |  | 
[Cl-].[Cl-].[Mg+2] [Mg^2+, MgCl2] | 9.7 | 100 |  | no influence
[Cl][Mn][Cl] [Mn^2+, MnCl2] | 5.4 | 100 |  | no influence
